Laboratory results reported in PubChem BioAssay AID1919010 (Molecular Pharmacology Branch, DTP, NCI, 2023).

System: Hs578T complex spheroid growth, percent test/control
Experiment: Anticancer human tumor Hs578T cell line growth inhibition [AhR];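 also: luminescent viability signal as a proxy for spheroid growth; spheroids exposed to agents for one week after three days of growth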
Details: for IC50: curve of first compound; for viability, T/C: stronger effect = lower value
Outline: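 Complex tumor spheroids co-cultured with HUVEC and human MSC stroma; AhR antagonists tested in combination with standard-of-care and investigational agents. Top concentration at or near clinical Cmax (else 10 microM), half-log dilutions; growth expressed as percent test/control.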

[1] = second compound 0.1 µM, first compound 0.0316 µM
[2] = second compound 0.1 µM, first compound 0.1 µM
[3] = second compound 0.316 µM, first compound 0.0316 µM
[4] = second compound 0.316 µM, first compound 0.1 µM
[5] = second compound 1 µM, first compound 0.0316 µM
[6] = second compound 1 µM, first compound 0.1 µM
[7] = second compound 3.16 µM, first compound 0.0316 µM
[8] = second compound 3.16 µM, first compound 0.1 µM
[9] = second compound 10 µM, first compound 0.0316 µM
[10] = second compound 10 µM, first compound 0.1 µM
[11] = second compound 0.1 µM, first compound 0.316 µM
[12] = second compound 0.1 µM, first compound 1 µM
[13] = second compound 0.1 µM, first compound 3.16 µM
[14] = second compound 0.1 µM, first compound 10 µM
[15] = second compound 0.316 µM, first compound 0.316 µM
[16] = second compound 0.316 µM, first compound 1 µM
[17] = second compound 0.316 µM, first compound 3.16 µM
[18] = second compound 0.316 µM, first compound 10 µM
[19] = second compound 1 µM, first compound 0.316 µM
[20] = second compound 1 µM, first compound 1 µM
[21] = second compound 1 µM, first compound 3.16 µM
[22] = second compound 1 µM, first compound 10 µM
[23] = second compound 3.16 µM, first compound 0.316 µM
[24] = second compound 3.16 µM, first compound 1 µM
[25] = second compound 3.16 µM, first compound 3.16 µM
[26] = second compound 3.16 µM, first compound 10 µM
[27] = second compound 10 µM, first compound 0.316 µM
[28] = second compound 10 µM, first compound 1 µM
[29] = second compound 10 µM, first compound 3.16 µM
[30] = second compound 10 µM, first compound 10 µM

In the case of CC[C@@]1(O)C(=O)OCc2c1cc1n(c2=O)Cc2cc3c(CN(C)C)c(O)ccc3nc2-1 + Cc1cncc(-c2nc(NCCc3c[nH]c4ccccc34)c3ncn(C(C)C)c3n2)c1, the IC50 (second compound 0.1 µM) is reported as greater than 100 nM, the IC50 (second compound 0.316 µM) is reported as greater than 100 nM and the IC50 (second compound 1 µM) is reported as greater than 100 nM. It also gave an IC50 (second compound 3.16 µM) of 14.7 nM, an IC50 (second compound 10 µM) of less than 0.316 nM and a viability, T/C (second compound 0.1 µM, first compound 0.000316 µM) of 109%. For the same molecule, the viability, T/C (second compound 0.1 µM, first compound 0.001 µM) was 112%, the viability, T/C (second compound 0.1 µM, first compound 0.00316 µM) was 95.3% and the viability, T/C (second compound 0.1 µM, first compound 0.01 µM) was 91.8%. For the same molecule, the viability, T/C [1] was 81.7%, the viability, T/C [2] was 71.1% and the viability, T/C (second compound 0.316 µM, first compound 0.000316 µM) was 113%. The viability, T/C (second compound 0.316 µM, first compound 0.001 µM) was 112%, the viability, T/C (second compound 0.316 µM, first compound 0.00316 µM) was 108% and the viability, T/C (second compound 0.316 µM, first compound 0.01 µM) was 86.2%. It also gave a viability, T/C [3] of 80.5%, a viability, T/C [4] of 76.8% and a viability, T/C (second compound 1 µM, first compound 0.000316 µM) of 102%. It also gave a viability, T/C (second compound 1 µM, first compound 0.001 µM) of 121%, a viability, T/C (second compound 1 µM, first compound 0.00316 µM) of 98.2% and a viability, T/C (second compound 1 µM, first compound 0.01 µM) of 86.9%. The viability, T/C [5] was 74.6%, the viability, T/C [6] was 72.4% and the viability, T/C (second compound 3.16 µM, first compound 0.000316 µM) was 68.3%. It also gave a viability, T/C (second compound 3.16 µM, first compound 0.001 µM) of 72.9%, a viability, T/C (second compound 3.16 µM, first compound 0.00316 µM) of 67.6% and a viability, T/C (second compound 3.16 µM, first compound 0.01 µM) of 52.4%. The viability, T/C [7] was 44.5%, the viability, T/C [8] was 46.4% and the viability, T/C (second compound 10 µM, first compound 0.000316 µM) was 9.03%. It also gave a viability, T/C (second compound 10 µM, first compound 0.001 µM) of 8.61%, a viability, T/C (second compound 10 µM, first compound 0.00316 µM) of 7.61% and a viability, T/C (second compound 10 µM, first compound 0.01 µM) of 6.12%. It also gave a viability, T/C [9] of 6.14% and a viability, T/C [10] of 6.3%.

With COc1cc(C2c3cc4c(cc3C(OC3OC5COC(C)OC5C(O)C3O)C3COC(=O)C23)OCO4)cc(OC)c1O (stereo not given) + Cc1cncc(-c2nc(NCCc3c[nH]c4ccccc34)c3ncn(C(C)C)c3n2)c1 the IC50 (second compound 0.1 µM) was greater than 10000 nM, the IC50 (second compound 0.316 µM) was greater than 10000 nM and the IC50 (second compound 1 µM) was greater than 10000 nM. For the same molecule, the IC50 (second compound 3.16 µM) was 1860 nM, the IC50 (second compound 10 µM) was less than 31.6 nM and the viability, T/C [1] was 108%. The viability, T/C [2] was 101%, the viability, T/C [11] was 89% and the viability, T/C [12] was 80.7%. It also gave a viability, T/C [13] of 88.5%, a viability, T/C [14] of 63.9% and a viability, T/C [3] of 108%. For the same molecule, the viability, T/C [4] was 101%, the viability, T/C [15] was 94.3% and the viability, T/C [16] was 77%. For the same molecule, the viability, T/C [17] was 76.9%, the viability, T/C [18] was 61.3% and the viability, T/C [5] was 96.9%. The viability, T/C [6] was 101%, the viability, T/C [19] was 93% and the viability, T/C [20] was 85.8%. It also gave a viability, T/C [21] of 73.2%, a viability, T/C [22] of 63% and a viability, T/C [7] of 64%. It also gave a viability, T/C [8] of 64.1%, a viability, T/C [23] of 61.5% and a viability, T/C [24] of 49%. It also gave a viability, T/C [25] of 49.3%, a viability, T/C [26] of 37.8% and a viability, T/C [9] of 6.72%. For the same molecule, the viability, T/C [10] was 7.12%, the viability, T/C [27] was 5.72% and the viability, T/C [28] was 3.77%. For the same molecule, the viability, T/C [29] was 4.01% and the viability, T/C [30] was 4.25%.

Nc1ccn(C2OC(CO)C(O)C2(F)F)c(=O)n1 (stereo not given) + Cc1cncc(-c2nc(NCCc3c[nH]c4ccccc34)c3ncn(C(C)C)c3n2)c1 gave an IC50 (second compound 0.1 µM) greater than 10000 nM, an IC50 (second compound 0.316 µM) greater than 10000 nM and an IC50 (second compound 1 µM) greater than 10000 nM. It also gave an IC50 (second compound 3.16 µM) of less than 31.6 nM, an IC50 (second compound 10 µM) of less than 31.6 nM and a viability, T/C [1] of 59.4%. It also gave a viability, T/C [2] of 59.6%, a viability, T/C [11] of 62.6% and a viability, T/C [12] of 56.5%. The viability, T/C [13] was 57.5%, the viability, T/C [14] was 56.8% and the viability, T/C [3] was 67.2%. The viability, T/C [4] was 65.4%, the viability, T/C [15] was 63% and the viability, T/C [16] was 60.9%. For the same molecule, the viability, T/C [17] was 59.4%, the viability, T/C [18] was 59.2% and the viability, T/C [5] was 61.6%. For the same molecule, the viability, T/C [6] was 65.2%, the viability, T/C [19] was 56.3% and the viability, T/C [20] was 57.8%. For the same molecule, the viability, T/C [21] was 56.8%, the viability, T/C [22] was 56.2% and the viability, T/C [7] was 37.8%. The viability, T/C [8] was 42.8%, the viability, T/C [23] was 41.1% and the viability, T/C [24] was 40.4%. For the same molecule, the viability, T/C [25] was 33.3%, the viability, T/C [26] was 37.8% and the viability, T/C [9] was 4.28%. It also gave a viability, T/C [10] of 4.47%, a viability, T/C [27] of 3.43% and a viability, T/C [28] of 2.76%. For the same molecule, the viability, T/C [29] was 3.29% and the viability, T/C [30] was 4.67%.
